Results on seven compounds are retold here after US20250051324A1, “PARP INHIBITOR, PHARMACEUTICAL COMPOSITION COMPRISING SAME, AND USE THEREOF” (KEYTHERA (SUZHOU) BIO-PHARMACEUTICALS CO., LIMITED, priority 2021, published 2025).

SMILES strings stand for the structures. Like-named read-outs stand apart in the source and are kept apart here.

One series can be described thus: in vitro. To be noted: CD1, mouse, microsomes.
Another series in a line: in vivo. The following applies: male, ICR (CD1), mouse, po, 10 mg/kg.
For series [1], the system named is MDA-MB-436 breast cancer cells. Description: Cell proliferation assay, MDA-MB-436. The following applies: Homo sapiens, MDA-MB-436, 168 h, read-out: MDA-MB-436 Cell IC50. It is filed as cell-based. Put shortly:
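Cells seeded 16 h, then exposed to a 9-point 1:3 compound dilution series for 7 days at 37° C., 5% CO2; DMSO-matched and cell-free controls. Viability by CellCounting-Lite luminescence; IC50 from log concentration versus % inhibition.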

Series [2] deals with T1, PARP1 (Homo sapiens (Human), UniProt P09874). In words: PARP1 trapping assay. The following applies: read-out: Inhibitory Effect on PARP1 Trapping IC50. The class given is biochemical. The procedure: (§1) [table] […] 1. A 4× enzyme reaction mixture, comprising PARP1, PARP2, and GST-Tb antibody, was prepared with the buffer and 4 μL of the enzyme reaction mixture was added to a 384-well plate. 2. A 4×PARP1 and PARP2 probe reaction mixture was prepared with the buffer and 4 μL of the probe reaction mixture was added to the 384-well plate. 3. A series of gradient-diluted compounds were prepared and 4 μL of the diluted compounds were added to the 384-well plate, and incubated at room temperature for 45 minutes. 4. After incubation, 4 μL of 4×NAD reaction mixture was added to the 384-well plate and incubated at room temperature for 10 minutes. 5. After incubation, the plate was read using a plate reader. 6. Data Analysis: The percentage inhibition rate was calculated as follows: Inhibition Rate (%)=(Reading of Compound Group−Reading of Blank Group)/(Reading of Vehicle Control Group−Reading of Blank Group).
T1 sequence (P09874 whole entry): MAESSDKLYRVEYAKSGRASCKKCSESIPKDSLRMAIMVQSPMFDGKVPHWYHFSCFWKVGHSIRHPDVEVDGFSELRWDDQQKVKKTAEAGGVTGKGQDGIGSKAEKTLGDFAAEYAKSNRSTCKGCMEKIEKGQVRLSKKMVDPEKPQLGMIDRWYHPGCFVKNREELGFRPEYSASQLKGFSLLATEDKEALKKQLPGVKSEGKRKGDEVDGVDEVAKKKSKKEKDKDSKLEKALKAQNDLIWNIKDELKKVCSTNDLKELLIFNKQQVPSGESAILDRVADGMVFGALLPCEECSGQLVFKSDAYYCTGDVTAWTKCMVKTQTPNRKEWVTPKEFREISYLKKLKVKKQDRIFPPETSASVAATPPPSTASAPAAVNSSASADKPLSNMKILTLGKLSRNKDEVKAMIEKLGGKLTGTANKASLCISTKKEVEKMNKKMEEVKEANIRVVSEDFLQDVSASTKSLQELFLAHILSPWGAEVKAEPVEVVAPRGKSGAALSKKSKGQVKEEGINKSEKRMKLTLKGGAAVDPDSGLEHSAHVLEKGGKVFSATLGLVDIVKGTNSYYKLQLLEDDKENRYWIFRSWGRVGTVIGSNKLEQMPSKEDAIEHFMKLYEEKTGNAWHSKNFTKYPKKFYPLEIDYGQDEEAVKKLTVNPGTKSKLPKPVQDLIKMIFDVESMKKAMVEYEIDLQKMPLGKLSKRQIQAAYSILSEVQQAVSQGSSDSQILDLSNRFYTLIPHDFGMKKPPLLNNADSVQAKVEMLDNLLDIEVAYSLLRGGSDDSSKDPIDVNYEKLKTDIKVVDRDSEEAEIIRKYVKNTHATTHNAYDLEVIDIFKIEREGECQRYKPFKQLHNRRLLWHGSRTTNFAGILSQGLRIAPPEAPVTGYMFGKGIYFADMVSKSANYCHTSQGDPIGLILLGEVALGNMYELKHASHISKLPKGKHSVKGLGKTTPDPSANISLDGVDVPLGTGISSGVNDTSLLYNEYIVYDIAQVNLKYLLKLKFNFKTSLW

For series [3], the target named is T1, PARP1. In words: PARP enzyme activity assay (PARP1 chemiluminescent assay kit). It is filed as biochemical. To be noted: enzyme inhibitory activity, read-out: PARP-1 IC50. Put shortly:
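Chemiluminescent kit measuring PARP1 poly(ADP-ribosylation) of plate-coated histones in presence of activated DNA; compounds in 1:3 serial dilution, top 10 μM before 10-fold buffer dilution. Enzyme (2.5 ng/μL added) reacted 60 min at room temperature, detected by streptavidin-HRP luminescence; IC50 from log-concentration vs % inhibition.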

Series [4] deals with UWB1.289 ovarian cancer cells. In words: Cell proliferation assay, UWB1.289. The following applies: UWB1289, 168 h, read-out: UWB1.289 Cell IC50. The class given is cell-based. The procedure:
Experimental Materials: MDA-MB-436 or UWB1.289 cell lines were purchased from Cobioer Biosciences Co. Ltd. (Nanjing, China). The STR identification results were a complete match, and mycoplasma testing was negative. MDA-MB-436 cells were cultured in DMEM complete medium containing 10% fetal bovine serum, 1% penicillin-streptomycin, 1% insulin, and 16 μg/mL glutathione; UWB1.289 cells were cultured in RMPI1640 complete medium containing 10% fetal bovine serum and 1% penicillin-streptomycin.
1. MDA-MB-436 or UWB1.289 cells were cultured in the aforementioned medium (culture conditions: 37° C., 5.0% CO2 in air) until they reached the logarithmic growth phase. The cells were then digested with trypsin containing 0.25% EDTA, centrifuged at 1000 rpm, and the supernatant was discarded. Cell culture medium was added, and the cell suspension was adjusted to 2×10^4/mL after counting. 135 μL of the cell suspension per well was taken and cultured in a 96-well cell culture plate for 16 hours (culture conditions: 37° C., 5.0% CO2 in air).
2. The test compounds, stored at a concentration of 10 mM, were diluted 2.5 times with DMSO and then serially diluted in a 1:3 gradient (9 gradients). The gradient-diluted samples were further diluted 40 times with serum-free medium, and 15 μL of each was added to the 96-well cell culture plate. The positive control group received serum-free medium containing the same concentration of DMSO, and the negative control group received medium without cells. The cells were then cultured for an additional 7 days.
3. After the culture period, the cell culture plate was placed at room temperature for 30 minutes. Then, 100 μL of CellCounting-Lite 2.0 reagent (Vazyme, #DD1101) was added to each well, mixed thoroughly, and incubated in the dark at room temperature for 10 minutes. The luminescence signal was read using a Synergy HTX multi-mode reader.
4. Data analysis was performed using GraphPad Prism 8.0 software. The inhibition rate (%) was calculated as 100*(average luminescence signal of the positive control group−luminescence signal of the compound)/(average luminescence signal of the positive control group−average luminescence signal of the negative control group). The IC50 value was obtained by plotting the logarithm of the compound concentration against the percentage inhibition rate.

Another series deals with PARP2 (Homo sapiens (Human), UniProt Q9UGN5). Description: PARP2 trapping assay. The following applies: read-out: Inhibitory Effect on PARP2 Trapping IC50. It is filed as biochemical. The procedure: as §1
PARP2, sequence (Q9UGN5 whole entry): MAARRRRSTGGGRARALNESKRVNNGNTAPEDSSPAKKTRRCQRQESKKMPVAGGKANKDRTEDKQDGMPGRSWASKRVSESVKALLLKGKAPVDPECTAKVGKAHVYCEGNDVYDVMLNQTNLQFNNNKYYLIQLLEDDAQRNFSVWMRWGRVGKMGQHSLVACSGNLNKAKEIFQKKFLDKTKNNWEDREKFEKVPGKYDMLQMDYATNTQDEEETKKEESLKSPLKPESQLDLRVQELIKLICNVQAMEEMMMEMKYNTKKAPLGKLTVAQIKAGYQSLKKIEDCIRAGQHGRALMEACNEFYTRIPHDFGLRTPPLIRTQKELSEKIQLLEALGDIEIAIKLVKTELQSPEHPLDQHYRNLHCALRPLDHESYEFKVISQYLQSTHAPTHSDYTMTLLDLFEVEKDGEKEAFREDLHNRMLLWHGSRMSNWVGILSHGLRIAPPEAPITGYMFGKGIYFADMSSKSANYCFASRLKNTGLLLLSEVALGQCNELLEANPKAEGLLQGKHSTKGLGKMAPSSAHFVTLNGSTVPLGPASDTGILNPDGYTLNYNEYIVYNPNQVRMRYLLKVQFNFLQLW
Series [5] is described as follows: Evaluation of pharmacokinetics in mice. The following applies: male, ICR (CD1), mouse, plasma, po, 10 mg/kg.
Procedure: (§3) Test Objective: The pharmacokinetics of the example compounds of the present application were tested in mice. By measuring the drug concentration in mouse plasma, the pharmacokinetic behavior of the compounds of the present invention was studied to evaluate their pharmacokinetic characteristics.
(§4) Test Animals: 6-8 Week Old Male ICR (CD1) Mice
(§5) Oral Gavage Drug Preparation: An appropriate amount of the test compound was first weighed and dissolved in DMSO (Macklin cas: 67-68-5) to prepare a 20 mg/mL solution. Then, 75 μL of this solution was added to 150 μL of Solutol (Sigma cas: 70142-34-6), followed by 1.275 mL of 20% Captisol (Selleck cas: 182410-00-0), resulting in a final drug concentration of 1 mg/mL.
(§6) Intravenous Injection Drug Preparation: An appropriate amount of the test compound was first weighed and dissolved in DMSO (Macklin cas: 67-68-5) to prepare a 30 mg/mL solution. Then, 15 μL of this solution was added to 150 μL of Solutol (Sigma cas: 70142-34-6), followed by 1.335 mL of 20% Captisol (Selleck cas: 182410-00-0), resulting in a final drug concentration of 0.3 mg/mL.
(§7) Procedures: The mice were fasted overnight with free access to water before the experiment. Food was restored two hours after dosing. Blood samples were collected at different time points after intravenous injection or oral gavage of the test compound in mice, and the compound concentration in plasma was measured. Approximately 50 μL of blood was collected from each animal using a capillary sampling tube via the orbital venous plexus, with heparin sodium as an anticoagulant. Blood samples were placed on ice, centrifuged at 3500 r/min for 10 minutes to separate the plasma, and 20 μL of the collected plasma was added to 200 μL of acetonitrile (Merck cas: 75-05-8) containing 200 nM dexamethasone (Selleck cas: 50-02-2) as an internal standard. The mixture was centrifuged at 8000 r/min for 20 minutes. After centrifugation, 150 μL of the supernatant was transferred to a new centrifuge tube, and 150 μL of 0.1% formic acid (Fisher cas: 207868) was added. The mixture was mixed well, and 5 μL of the sample was subjected to quantitative analysis by liquid chromatography-mass spectrometry (Q-TOF LC/MS).
(§8) The test compound was serially diluted with DMSO to cover the compound concentrations expected in plasma samples to be tested, with a blank sample (containing only DMSO) included.
(§9) 2 μL of each diluted sample at various concentrations was added to 18 μL of normal ICR mouse plasma, mixed, and then added to 200 μL of acetonitrile (Merck cas: 75-05-8) containing 200 nM dexamethasone (Selleck cas: 50-02-2) as an internal standard. The mixture was centrifuged for 20 minutes (8000 r/min). 150 μL of the supernatant was transferred to a new centrifuge tube, and 150 μL of 0.1% formic acid (Fisher cas: 207868) was added. The mixture was mixed well, and 5 μL of the sample was subjected to quantitative analysis by liquid chromatography-mass spectrometry (Q-TOF LC/MS).
(§10) The final standard curve was plotted using the concentration of the test compound after dilution on the abscissa and the ratio of the signal of the compound to the internal standard (dexamethasone) on the ordinate. The standard curve was generated using linear regression with GraphPad Prism 8 software (R2>0.9900).
(§11) Data Analysis: calculation of pharmacokinetic parameters: the concentration of the test compound in plasma at different time points after intravenous injection or oral gavage in ICR mice was determined based on the above standard curve, and pharmacokinetic parameters (T1/2, Cmax, AUC, etc.) were calculated using the Phoenix WinNonlin 8.1 non-compartmental analysis model.
A short description of series [6]: Evaluation of pharmacokinetics in rats. It is filed as in vivo. The following applies: male, SD, rat, plasma, 1 mg/kg, oral gavage (PO, 1 mpk). The source says: Test Animals: 6-8 Week Old Male SD Rats
Food was restored two hours after dosing.

Series [7] has as its system peripheral blood reticulocytes. Description: Effect of compound on rat reticulocytes. The class given is in vivo. To be noted: 4 days. The procedure: Test Objective: The effect of the compound on peripheral blood reticulocytes was evaluated to determine its impact on bone marrow hematopoietic function.
(§2) Test Compounds: Olaparib, Compound 1
Experimental Animals: Male Sprague Dawley rats were purchased from Beijing Charles River Laboratory Animal Technology Co., Ltd. Housing and Management: The experimental animals were housed in SPF-grade, temperature- and humidity-controlled clean rooms, using individually ventilated cages (IVC) with no more than 5 rats per cage. Temperature/humidity was controlled within the range of (23±3)° C./40-70%. Feed and water: SPF-grade rat feed, sterilized by cobalt-60 irradiation. Drinking water was ultrafiltered and autoclaved. Animals had free access to sterile food and water. Animal identification: ear tags.
Experimental Method: The experiment was divided into the following 5 groups: vehicle control group; Olaparib 100 mg/kg; Compound 1 0.1 mg/kg; Compound 1 0.3 mg/kg; and Compound 1 1.0 mg/kg. All treatments were administered orally by gavage once daily for 4 days. Blood samples were collected before and after treatment to measure peripheral blood reticulocyte counts.

Series [8] has as its system human breast cancer (MDA-MB-436) cell line. In words: Mouse CDX tumor model (MDA-MB-436 subcutaneous xenograft). It is filed as in vivo. The procedure:
Test Objective: The efficacy of the compounds was evaluated in a subcutaneous xenograft model of human breast cancer (MDA-MB-436) cell line in mice.
as §2
Experimental Animals: Female NOD SCID mice, 4-5 weeks old, purchased from Nanjing Jicui.
Housing and Management: The experimental animals were housed in SPF-grade, temperature- and humidity-controlled clean rooms, using individually ventilated cages (IVC) with no more than 5 mice per cage. Temperature/humidity was controlled within the range of (23±3)° C./40-70%. Feed and water: SPF-grade mouse feed, sterilized by cobalt-60 irradiation. Drinking water was ultrafiltered and autoclaved. Animals had free access to sterile food and water. Animal identification: ear tags.
Tumor Cell Line and Tumor Model: MDA-MB-436 cells (Nanjing Cobioer Biotechnology Co., Ltd., Cat. No: CBP60385) were cultured in vitro in DMEM complete medium containing 10% fetal bovine serum, 1% penicillin-streptomycin, 1% insulin, and 16 μg/mL glutathione (37° C., 5% CO2). When the cells met the requirements for the in vivo efficacy experiment, they were collected, counted, and prepared into a PBS cell suspension. Each mouse (5-6 weeks old NOD SCID) was inoculated subcutaneously on the right flank with 0.9×10^7 cells. Tumor volume was measured and calculated three times a week after inoculation. When the tumor volume reached approximately 200-300 mm^3, the mice were grouped for administration.
Experimental Groups: The experiment was divided into the following groups: vehicle control group; Olaparib 100 mg/kg group; Compound 1 0.1 mg/kg group; Compound 1 0.3 mg/kg group; and Compound 1 1.0 mg/kg group. All groups were administered orally by gavage once daily. […] After 28 days of administration, the tumor volume was used to calculate the tumor growth inhibition rate (TGI %), and the tumor inhibition effect was statistically analyzed using software such as Excel, etc.

Series [9] in a line: Liver microsome metabolism assay. The following applies: CD1, mouse, liver microsomes.
Procedure: (§12) Experimental Materials: Mixed CD1 mouse liver microsomal enzyme protein was purchased from Xenotech (#M1000), and NADPH was purchased from Abmole (#M9076).
(§13) 1. To the liver microsomal enzyme reaction system, 210 μL of phosphate buffer was added, followed by 12.5 μL of liver microsomal enzyme at a concentration of 20 mg/mL. Then, 25 μL of NADPH at a concentration of 10 mM was added to the system, mixed well, and incubated in a 37° C. water bath with shaking for 10 minutes.
(§14) 2. The test compound, stored at a concentration of 10 mM, was diluted to 100 μM with DMSO. Then, 2.5 μL of the diluted test compound was added to the reaction system, mixed well, and incubated in a 37° C. water bath with shaking.
(§15) 3. At 0.5, 5, 10, 20, 30, and 60 minutes, 25 μL of the enzyme reaction mixture was taken and added to 125 μL of cold acetonitrile containing dexamethasone as an internal standard. The mixture was centrifuged at 4000 g for 20 minutes, and the supernatant was mixed with an equal volume of distilled water. The mixed sample was then subjected to quantitative analysis by liquid chromatography-mass spectrometry.
(§16) 4. Calculation of in vitro drug metabolism half-life and drug clearance rate:
(§17) t1/2=−0.693/k. (k: the slope of the linear regression of the natural logarithm of the percentage of drug remaining versus incubation time).

Procedure for in vitro: as §12, §13, §14, §15, §16, §17
Procedure for in vivo: as §3, §4, §5, §6, §7, §8, §9, §10, §11

`CNC(=O)c1cnc(C2=CCN(Cc3cnc4c(C)c(C(F)(F)F)c(=O)[nH]c4c3)CC2)cn1` [Compound 79, N-methyl-5-(1-((8-methyl-6-oxo-7-(trifluoromethyl)-5,6-dihydro-1,5-naphthyridin-3-yl)methyl)-1,2,3,6-tetrahydropyridin-4-yl)pyrazine-2-carboxamide]: in the series “in vitro”, the microsomal CLint at 1 µM amounted to 0.69 µL/min/mg. Further, in the series “in vivo”, the AUC(0-inf) came to 2420 µg·h/mL, the concentration peaked (Cmax) at 57000 ng/mL and the half-life is 30.5 h. Besides, in series [1] (proliferation, 7 days), the IC50 was found to be 18.5 nM.
In the case of `CNC(=O)c1ccc(C2=CCN(Cc3cc4[nH]c(=O)c(C(F)(F)F)c(C)c4cn3)CC2)cn1` [Compound 89, N-methyl-1′-((4-methyl-2-oxo-3-(trifluoromethyl)-1,2-dihydro-1,6-naphthyridin-7-yl)methyl)-1′,2′,3′,6′-tetrahydro-[3,4′-bipyridine]-6-carboxamide], in the series “in vitro”, the intrinsic metabolic clearance (microsomal CLint) at 1 µM was determined as 0.81 µL/min/mg. Moreover, the concentration for half-maximal inhibition (IC50) in [1] (proliferation, 7 days) was determined as 1.06 nM; at PARP1 [2] it was 1.53 nM.
As for `CNC(=O)c1ccc(C2=CCN(Cc3cnc4c(C)c(C(F)(F)F)c(=O)[nH]c4c3)CC2)cn1` [Compound 14, N-methyl-1′-((8-methyl-6-oxo-7-(trifluoromethyl)-5,6-dihydro-1,5-naphthyridin-3-yl)methyl)-1′,2′,3′,6′-tetrahydro-[3,4′-bipyridine]-6-carboxamide], the half-maximal inhibitory concentration (IC50) is 0.83 nM at PARP1 [3]; 4.93 nM in [4] (proliferation, 7 days); 2.38 nM in [1] (proliferation, 7 days); 176 nM on PARP2; 1.38 nM at PARP1 [2]. For the same compound, the area under the curve AUC(0-inf) in series [5] is 2720 µg·h/mL; in series [6], 19.2 µg·h/mL. Further, the Cmax was found to be 128000 ng/mL in [5] and 1770 ng/mL in series [6]. In addition, the half-life in series [5] is 27.8 h; in series [6], 6.35 h.
`CNC(=O)c1ccc(N2CCN(Cc3cnc4c(C)c(C(F)(F)F)c(=O)[nH]c4c3)C[C@H]2C)cn1` [Compound 54, (R)—N-methyl-5-(2-methyl-4-((8-methyl-6-oxo-7-(trifluoromethyl)-5,6-dihydro-1,5-naphthyridin-3-yl)methyl)piperazin-1-yl)picolinamide]: the half-inhibitory concentration (IC50) worked out at 3.34 nM in series [4] (proliferation, 7 days); 4.32 nM in series [1] (proliferation, 7 days); 192 nM on PARP2; 1.31 nM on PARP1 [2]. The figures for the AUC(0-inf) in series [5] and in series [6] were 987 µg·h/mL and 16.8 µg·h/mL, respectively. The Cmax in series [5] is 48200 ng/mL; in series [6], 1690 ng/mL. The values for the half-life in series [5] and in series [6] were 17.9 h and 7.2 h, respectively.
Consider `O=C(c1cc(Cc2n[nH]c(=O)c3ccccc23)ccc1F)N1CCN(C(=O)C2CC2)CC1` [Olaparib, reference compound], for which, in series [7] (100 mg/kg oral once daily), the “Reticulocyte Inhibition Rate” value is on record as 91.6%. For the same compound, the “Effect on peripheral blood reticulocytes (in words)” value in series [7] (100 mg/kg, p<0.01) was “significantly reduced”. The “Tumor Growth Inhibition Rate (TGI)” value in series [8] (100 mg/kg oral once daily, 28 days) came to 89%. Also, the “Body weight vs vehicle control group” value in series [8] (MDA-MB-436 model, all treatment groups) is “no significant difference”.
Consider `CNC(=O)c1ccc(N2CCN(Cc3cnc4c(C)c(C(F)(F)F)c(=O)[nH]c4c3)[C@@H](C)C2)cn1` [Compound 52, (S)—N-methyl-5-(3-methyl-4-((8-methyl-6-oxo-7-(trifluoromethyl)-5,6-dihydro-1,5-naphthyridin-3-yl)methyl)piperazin-1-yl)picolinamide], for which the IC50 in series [4] (proliferation, 7 days) came to 11.2 nM; in series [1] (proliferation, 7 days) it was 5.05 nM; at PARP2 it was 271 nM; at PARP1 [2] it was 1.6 nM. Also, the figures for the total exposure AUC(0-inf) in series [5] and in series [6] were 1550 µg·h/mL and 18.8 µg·h/mL, respectively. The maximum concentration (Cmax) in [5] was found to be 50200 ng/mL; in series [6], 1450 ng/mL. For the same compound, the half-life was 25.9 h in [5] and 5.67 h in [6].
For `CNC(=O)c1ccc(N2CCN(Cc3cc4[nH]c(=O)c(C(F)(F)F)c(C)c4cn3)CC2)cn1` [Compound 2, N-methyl-5-(4-((4-methyl-2-oxo-3-(trifluoromethyl)-1,2-dihydro-1,6-naphthyridin-7-yl)methyl)piperazin-1-yl)picolinamide], the IC50 was 3.14 nM at PARP1 [3]; 2.76 nM in [4]; 2.32 nM in series [1]; 137 nM on PARP2; 1.22 nM on PARP1 [2]. The intrinsic metabolic clearance (microsomal CLint) at 1 µM in series [9] is 0.39 µL/min/mg. Further, in series [6], the total exposure AUC(0-inf) came to 19.3 µg·h/mL. The same compound returned a peak concentration (Cmax) in series [6] of 2000 ng/mL. Moreover, the half-life in series [6] was 5.07 h.
